Measured values taken from patent publication US20110275798A1, “Method for Determination of Sirolimus Stability and Process for Preparing Its Stable Form” (priority 2009, published 2011).

Assay: Stability (degradation) of sirolimus solid forms
Assay type: physicochemical

stability (degradation) (amorphous form): degrades at a fast rate | stability (degradation) (crystalline form): substantially stable
Compound: CO[C@H]1C[C@@H]2CC[C@@H](C)[C@@](O)(O2)C(=O)C(=O)N2CCCC[C@H]2C(=O)O[C@H]([C@H](C)C[C@@H]2CC[C@@H](O)[C@H](OC)C2)CC(=O)[C@H](C)/C=C(\C)[C@@H](O)[C@@H](OC)C(=O)[C@H](C)C[C@H](C)/C=C/C=C/C=C/1C [sirolimus]
